Calls of active or inactive are those of the source.
Tests used:
[1] = target: T1, E3 ubiquitin-protein ligase XIAP (Homo sapiens, UniProt P98170); experiment: Counter Screen using XIAP-Bir3 of the Chemical Antagonists of IAP-family anti-apoptotic proteins confirmation assay. [Related pubchem assays (depositor defined):AID1018, AID1449, AID1513, AID1638, AID1749, AID1750, AID488957, AID488963]
[2] = target: T1, E3 ubiquitin-protein ligase XIAP; experiment: Chemical Antagonists of IAP-family anti-apoptotic proteins confirmation. [Related pubchem assays (depositor defined):AID1018, AID1513, AID1514, AID1638, AID1749, AID1750, AID488957, AID488963]
[3] = target: Hexokinase HKDC1 (Homo sapiens, UniProt Q2TB90); experiment: HKDC1 hexokinase activators, dose response, biochemical, W721R variant (AID 504730); assay type: functional
Hexokinase HKDC1, sequence (Q2TB90 whole entry): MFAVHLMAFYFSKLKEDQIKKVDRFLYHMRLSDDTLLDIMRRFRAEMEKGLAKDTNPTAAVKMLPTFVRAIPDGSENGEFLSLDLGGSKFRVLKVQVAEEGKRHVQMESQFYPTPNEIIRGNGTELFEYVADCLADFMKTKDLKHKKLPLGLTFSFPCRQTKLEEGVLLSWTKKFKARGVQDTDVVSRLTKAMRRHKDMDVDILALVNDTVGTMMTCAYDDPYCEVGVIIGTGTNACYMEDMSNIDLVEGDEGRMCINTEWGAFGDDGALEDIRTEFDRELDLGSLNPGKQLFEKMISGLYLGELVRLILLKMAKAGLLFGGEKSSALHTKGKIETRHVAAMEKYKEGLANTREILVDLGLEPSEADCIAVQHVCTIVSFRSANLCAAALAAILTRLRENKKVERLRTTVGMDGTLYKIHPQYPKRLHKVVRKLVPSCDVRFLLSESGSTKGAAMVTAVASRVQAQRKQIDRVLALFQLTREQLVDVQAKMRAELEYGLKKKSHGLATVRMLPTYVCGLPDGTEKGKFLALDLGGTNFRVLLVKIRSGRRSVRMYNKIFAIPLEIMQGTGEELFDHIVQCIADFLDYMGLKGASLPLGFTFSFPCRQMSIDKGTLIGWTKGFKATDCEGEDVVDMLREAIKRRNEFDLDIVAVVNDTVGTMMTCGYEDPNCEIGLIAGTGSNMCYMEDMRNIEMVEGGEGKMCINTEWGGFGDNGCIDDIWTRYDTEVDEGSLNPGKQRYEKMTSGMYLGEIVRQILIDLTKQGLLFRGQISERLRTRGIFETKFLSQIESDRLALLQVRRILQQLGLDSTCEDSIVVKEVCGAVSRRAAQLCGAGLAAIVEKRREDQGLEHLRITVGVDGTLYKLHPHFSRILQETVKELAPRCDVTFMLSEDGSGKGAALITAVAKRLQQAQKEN

[4] = target: Hexokinase-1 (Homo sapiens, UniProt P19367); experiment: hexokinase 1 activators, dose response, selectivity assay for HKDC1 activator project, biochemical (AID 504762); assay type: functional
[5] = target: Tumor necrosis factor (Homo sapiens, UniProt P01375); experiment: TNFa-triggered NF-kB activation inhibitors, SAR follow-up, cell-based, revised (AID 2337); assay type: functional
Tumor necrosis factor, sequence (P01375 whole entry, the tested form may be a part): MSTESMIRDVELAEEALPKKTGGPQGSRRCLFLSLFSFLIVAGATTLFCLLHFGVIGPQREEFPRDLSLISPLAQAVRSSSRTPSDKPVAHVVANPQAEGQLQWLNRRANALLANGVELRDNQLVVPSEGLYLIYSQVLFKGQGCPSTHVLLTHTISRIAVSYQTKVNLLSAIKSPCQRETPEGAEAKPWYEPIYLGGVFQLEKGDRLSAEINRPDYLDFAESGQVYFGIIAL

[6] = target: Nucleotide-binding oligomerization domain-containing protein 1 (Homo sapiens, UniProt Q9Y239); experiment: NOD1 signaling inhibitors, SAR follow-up, revised (AID 2333); assay type: functional
Nucleotide-binding oligomerization domain-containing protein 1, sequence (Q9Y239 whole entry, the tested form may be a part): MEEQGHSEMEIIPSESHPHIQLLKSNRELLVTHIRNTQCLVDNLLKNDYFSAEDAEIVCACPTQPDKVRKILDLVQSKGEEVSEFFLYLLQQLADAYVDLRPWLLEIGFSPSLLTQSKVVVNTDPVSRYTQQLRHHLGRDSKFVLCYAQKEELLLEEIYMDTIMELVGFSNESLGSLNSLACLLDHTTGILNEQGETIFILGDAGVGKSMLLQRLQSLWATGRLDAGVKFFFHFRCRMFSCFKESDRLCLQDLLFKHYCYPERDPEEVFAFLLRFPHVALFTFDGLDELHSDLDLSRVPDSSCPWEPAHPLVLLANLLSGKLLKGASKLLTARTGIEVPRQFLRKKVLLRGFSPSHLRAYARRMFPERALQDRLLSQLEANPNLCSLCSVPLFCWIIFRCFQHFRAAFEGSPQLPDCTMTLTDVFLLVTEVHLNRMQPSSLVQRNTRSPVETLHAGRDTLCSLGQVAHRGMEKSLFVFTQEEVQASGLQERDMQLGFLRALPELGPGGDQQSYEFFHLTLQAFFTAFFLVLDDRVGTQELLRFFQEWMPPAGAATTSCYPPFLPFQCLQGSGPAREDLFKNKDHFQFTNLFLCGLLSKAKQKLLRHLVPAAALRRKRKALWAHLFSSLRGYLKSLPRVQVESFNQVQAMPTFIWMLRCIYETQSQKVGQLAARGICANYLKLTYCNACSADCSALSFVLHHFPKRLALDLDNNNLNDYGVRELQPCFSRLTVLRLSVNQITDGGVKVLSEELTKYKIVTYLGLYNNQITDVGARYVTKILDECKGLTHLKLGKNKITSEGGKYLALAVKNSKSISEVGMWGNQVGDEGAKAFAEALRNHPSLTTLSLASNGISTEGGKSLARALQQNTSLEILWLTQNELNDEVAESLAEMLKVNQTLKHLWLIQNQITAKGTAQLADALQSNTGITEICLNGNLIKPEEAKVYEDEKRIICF

[7] = target: Nucleotide-binding oligomerization domain-containing protein 2 (Homo sapiens, UniProt Q9HC29); experiment: PubChem AID 2334; assay type: functional
Nucleotide-binding oligomerization domain-containing protein 2, sequence (Q9HC29 whole entry, the tested form may be a part): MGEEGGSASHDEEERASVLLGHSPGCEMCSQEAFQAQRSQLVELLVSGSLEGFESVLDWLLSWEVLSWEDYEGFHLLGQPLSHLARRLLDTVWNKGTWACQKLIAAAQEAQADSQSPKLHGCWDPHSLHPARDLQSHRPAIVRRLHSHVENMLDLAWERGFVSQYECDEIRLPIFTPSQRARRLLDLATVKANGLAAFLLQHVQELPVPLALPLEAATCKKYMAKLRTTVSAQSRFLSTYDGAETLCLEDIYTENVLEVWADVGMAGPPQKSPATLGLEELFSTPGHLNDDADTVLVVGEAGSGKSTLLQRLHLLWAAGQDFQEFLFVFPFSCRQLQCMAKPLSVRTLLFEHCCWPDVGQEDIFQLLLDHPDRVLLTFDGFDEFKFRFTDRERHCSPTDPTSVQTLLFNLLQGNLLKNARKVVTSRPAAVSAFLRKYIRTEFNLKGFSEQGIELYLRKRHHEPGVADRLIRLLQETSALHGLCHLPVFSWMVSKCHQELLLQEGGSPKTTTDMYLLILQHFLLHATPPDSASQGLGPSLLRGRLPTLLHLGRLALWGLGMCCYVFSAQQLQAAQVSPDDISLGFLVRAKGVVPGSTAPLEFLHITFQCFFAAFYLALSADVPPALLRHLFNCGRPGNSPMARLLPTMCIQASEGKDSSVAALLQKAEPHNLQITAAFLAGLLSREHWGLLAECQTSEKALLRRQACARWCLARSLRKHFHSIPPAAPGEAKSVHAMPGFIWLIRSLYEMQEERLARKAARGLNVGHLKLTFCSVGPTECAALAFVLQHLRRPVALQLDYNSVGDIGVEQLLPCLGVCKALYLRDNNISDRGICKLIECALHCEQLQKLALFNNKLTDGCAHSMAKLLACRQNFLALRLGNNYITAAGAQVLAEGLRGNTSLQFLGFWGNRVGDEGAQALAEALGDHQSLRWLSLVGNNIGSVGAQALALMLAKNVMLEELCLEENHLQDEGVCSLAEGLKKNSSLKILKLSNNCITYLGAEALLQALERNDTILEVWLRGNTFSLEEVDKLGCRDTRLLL

[8] = test system: HEK293; experiment: cells; conditions: Homo sapiens;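 further: cells exposed to compound for 14 hours overnight before viability readout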
[9] = target: Sphingosine 1-phosphate receptor 1 (Homo sapiens, UniProt P21453); experiment: Fluorescence-based counterscreen assay for S1P4 agonists: Cell-based dose response high throughput screening assay to identify agonists of the Sphingosine 1-Phosphate Receptor 1 (S1P1). [Related pubchem assays (depositor defined):AID1509, AID1523, AID1801, AID463107, AID463118, AID463119, AID463122, AID463123, AID463129, AID463225, AID504400, AID504460]; assay type: functional
[10] = target: Sphingosine 1-phosphate receptor 4 (Homo sapiens, UniProt O95977); experiment: Fluorescence dose response cell-based high throughput screening assay for agonists of the Sphingosine 1-Phosphate Receptor 4 (S1P4). [Related pubchem assays: 1509 (Primary screen.), 1523 (Confirmation screen in triplicates.)]; assay type: functional
Sphingosine 1-phosphate receptor 4, sequence (O95977 whole entry): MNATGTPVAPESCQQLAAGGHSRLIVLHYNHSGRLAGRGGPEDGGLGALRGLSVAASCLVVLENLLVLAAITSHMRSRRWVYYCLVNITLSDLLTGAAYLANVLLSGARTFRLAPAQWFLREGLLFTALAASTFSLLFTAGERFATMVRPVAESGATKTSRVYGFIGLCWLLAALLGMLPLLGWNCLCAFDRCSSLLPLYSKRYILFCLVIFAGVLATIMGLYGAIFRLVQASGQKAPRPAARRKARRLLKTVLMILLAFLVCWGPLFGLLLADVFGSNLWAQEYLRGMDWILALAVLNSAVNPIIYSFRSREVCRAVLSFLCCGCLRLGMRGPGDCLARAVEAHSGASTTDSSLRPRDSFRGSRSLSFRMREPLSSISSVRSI

[11] = target: T2, Dual specificity protein phosphatase 3 (Homo sapiens, UniProt P51452); experiment: VHR1 phosphatase inhibitors, primary screen, biochemical, absorbance, uHTS (AID 1654)
T2 sequence (P51452 whole entry): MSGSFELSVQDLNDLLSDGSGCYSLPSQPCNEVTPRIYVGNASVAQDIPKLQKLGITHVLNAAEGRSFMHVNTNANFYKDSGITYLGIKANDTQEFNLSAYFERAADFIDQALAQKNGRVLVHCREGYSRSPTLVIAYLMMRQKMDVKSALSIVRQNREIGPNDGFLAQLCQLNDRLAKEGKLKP

[12] = target: T3, Tyrosine-protein phosphatase non-receptor type 7 (Homo sapiens, UniProt P35236); experiment: inhibitors of human HePTP phosphatase, […], biochemical, absorbance, leukemia target (AID 521); assay type: functional
T3 sequence (P35236 whole entry): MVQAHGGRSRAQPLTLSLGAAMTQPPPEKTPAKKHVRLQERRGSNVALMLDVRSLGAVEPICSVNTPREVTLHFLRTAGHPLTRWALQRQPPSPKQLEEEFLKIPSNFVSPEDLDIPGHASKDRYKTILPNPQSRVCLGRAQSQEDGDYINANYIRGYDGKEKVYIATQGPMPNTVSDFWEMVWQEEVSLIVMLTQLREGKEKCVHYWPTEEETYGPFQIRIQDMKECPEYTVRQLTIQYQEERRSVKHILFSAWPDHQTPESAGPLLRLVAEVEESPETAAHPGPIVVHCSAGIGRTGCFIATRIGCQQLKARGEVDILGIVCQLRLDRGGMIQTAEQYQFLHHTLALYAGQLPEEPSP

[13] = test system: BJ; experiment: cytotoxicity toward BJ-TERT fibroblasts, dose response, cell-based, RAS-independent, luminescence (AID 1933); assay type: functional; conditions: Homo sapiens
[14] = target: T3, Tyrosine-protein phosphatase non-receptor type 7; assay type: functional
[15] = test system: BJ; experiment: cells; assay type: functional, cell-based; conditions: Homo sapiens
[16] = target: T2, Dual specificity protein phosphatase 3; experiment: VHR1 phosphatase inhibitors, biochemical (AID 1878)
[17] = test system: BJ; experiment: cytotoxicity toward BJ-TERT-LT-ST fibroblasts, dose response, cell-based, RAS-independent, luminescence (AID 1935); assay type: functional; conditions: Homo sapiens;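 further: BJ fibroblasts immortalized with TERT plus LT and ST oncogenes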
[18] = target: T4, Dual specificity protein phosphatase 6 (Rattus norvegicus, UniProt Q64346); experiment: MKP-3 phosphatase inhibitors, primary screen, biochemical, rat enzyme, in vitro (AID 425)
T4 sequence (Q64346 whole entry): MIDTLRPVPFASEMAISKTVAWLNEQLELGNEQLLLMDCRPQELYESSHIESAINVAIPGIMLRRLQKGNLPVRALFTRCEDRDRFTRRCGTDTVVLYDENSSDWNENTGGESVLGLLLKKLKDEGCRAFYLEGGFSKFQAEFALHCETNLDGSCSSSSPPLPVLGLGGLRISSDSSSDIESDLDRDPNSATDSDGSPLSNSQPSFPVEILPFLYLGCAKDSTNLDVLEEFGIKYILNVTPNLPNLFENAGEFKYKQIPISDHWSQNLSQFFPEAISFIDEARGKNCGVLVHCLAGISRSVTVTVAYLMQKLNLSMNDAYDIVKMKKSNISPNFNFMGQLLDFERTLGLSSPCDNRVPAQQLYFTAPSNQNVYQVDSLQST

[19] = cytotoxicity toward DRD oncogenic fibroblasts, dose response, cell-based, non-viral oncogenic, luminescence (AID 1934); assay type: functional; conditions: Homo sapiens
[20] = target: T5, Tyrosine-protein phosphatase non-receptor type 22 (Homo sapiens, UniProt Q9Y2R2); assay type: functional
T5 sequence (Q9Y2R2 whole entry): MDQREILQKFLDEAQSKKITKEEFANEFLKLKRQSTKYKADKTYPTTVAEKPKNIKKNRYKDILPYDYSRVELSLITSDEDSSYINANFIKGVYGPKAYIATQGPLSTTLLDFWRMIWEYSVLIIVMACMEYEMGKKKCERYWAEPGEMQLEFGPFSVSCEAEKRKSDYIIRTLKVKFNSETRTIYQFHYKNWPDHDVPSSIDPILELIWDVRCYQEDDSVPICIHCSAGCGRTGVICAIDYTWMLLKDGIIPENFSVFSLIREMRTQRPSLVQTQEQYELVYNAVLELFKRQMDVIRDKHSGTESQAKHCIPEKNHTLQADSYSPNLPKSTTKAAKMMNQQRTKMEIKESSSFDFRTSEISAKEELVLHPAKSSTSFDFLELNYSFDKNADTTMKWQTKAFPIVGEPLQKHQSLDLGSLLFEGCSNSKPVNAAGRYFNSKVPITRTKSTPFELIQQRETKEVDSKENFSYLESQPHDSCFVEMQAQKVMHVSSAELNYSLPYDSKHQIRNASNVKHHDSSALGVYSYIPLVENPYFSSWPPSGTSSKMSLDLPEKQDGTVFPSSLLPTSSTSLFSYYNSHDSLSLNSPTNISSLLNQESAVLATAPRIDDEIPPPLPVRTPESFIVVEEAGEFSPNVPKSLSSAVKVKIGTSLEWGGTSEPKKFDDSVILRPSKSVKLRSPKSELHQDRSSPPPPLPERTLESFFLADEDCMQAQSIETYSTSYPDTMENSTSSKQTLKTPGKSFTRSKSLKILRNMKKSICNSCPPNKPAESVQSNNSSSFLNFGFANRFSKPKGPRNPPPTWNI

[21] = target: T5, Tyrosine-protein phosphatase non-receptor type 22; assay type: functional; remark: listed apart in the source
[22] = target: Heat shock protein HSP 90-alpha (Homo sapiens, UniProt P07900); assay type: functional, organism-based
[23] = test system: BJ; experiment: cytotoxicity toward Ras-transformed BJeLR fibroblasts, dose response, cell-based, alamar blue fluorescence, cherrypicked samples (AID 2631); assay type: functional; conditions: Homo sapiens;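 further: confirmatory dose-response assay in RAS-dependent BJ fibroblasts engineered with TERT, LT and ST, with cytotoxicity read by fluorescence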

T1 sequence (P98170 whole entry): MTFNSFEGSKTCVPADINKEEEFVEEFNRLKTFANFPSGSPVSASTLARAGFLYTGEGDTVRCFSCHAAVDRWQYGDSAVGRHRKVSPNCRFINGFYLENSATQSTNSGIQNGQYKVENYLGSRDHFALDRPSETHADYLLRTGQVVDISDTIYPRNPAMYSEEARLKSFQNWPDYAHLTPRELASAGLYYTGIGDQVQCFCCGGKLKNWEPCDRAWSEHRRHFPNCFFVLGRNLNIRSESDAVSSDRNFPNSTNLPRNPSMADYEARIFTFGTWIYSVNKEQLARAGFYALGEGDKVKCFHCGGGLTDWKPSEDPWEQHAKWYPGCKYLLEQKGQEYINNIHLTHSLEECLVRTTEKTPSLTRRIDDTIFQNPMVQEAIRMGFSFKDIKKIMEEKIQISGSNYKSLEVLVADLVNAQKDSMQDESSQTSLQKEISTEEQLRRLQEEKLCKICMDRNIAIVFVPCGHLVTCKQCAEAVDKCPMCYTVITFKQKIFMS

CC(C(=O)O)N1Cc2ccccc2C1=O (stereo not drawn)
IC50 [1]: > 200 µM (inactive) | IC50 [2]: > 200 µM (inactive)

CSc1nc(N)nc2c1ncn2CC(=O)N[C@H](C)c1cccc2ccccc12
EC50 [3]: 9.1 µM (active) | EC50 [4]: 11.8 µM (active)

Cc1cc(C(=O)NC2CCCc3c2cnn3-c2ccccc2F)[nH]n1 (stereo not drawn)
IC50 [5]: > 20 µM (inactive) | IC50 [6]: > 20 µM (inactive) | IC50 [7]: > 20 µM (inactive) | IC50 [8]: > 20 µM (inactive)

NC(=S)c1cc2ccc(O)cc2oc1=O
EC50 [9]: 52.9 µM (inactive) | EC50 [10]: 7.68 µM (active)

O=C(c1cccs1)c1no[n+]([O-])c1C(=O)c1cccs1
IC50 [11]: < 0.98 µM (inactive) | IC50 [12]: > 100 µM (not active) | EC50 [13]: 0.803 µM (active) | IC50 [14]: 4.5 µM (active) | EC50 [15]: 3.58 µM (active) | IC50 [16]: 7.48 µM (active) | EC50 [17]: 7.28 µM (inconclusive) | IC50 [18]: 141 µM (not active) | EC50 [19]: 2.78 µM (inconclusive) | IC50 [20]: 2.39 µM (active) | IC50 [21]: < 1.24 µM (active) | AC50 [22]: 3.5 µM (active) | EC50 [23]: 3.9 µM (inconclusive)

— ChEMBL document CHEMBL1201862, “PubChem BioAssay data set” (2004)
